Experimental data as given in patent US12473551B2, “Small RNA-based drug, preparation and use thereof in prophylaxis and/or treatment of cardiomyopathy” (SOUTHWEST MEDICAL UNIVERSITY, priority 2023, dated 2025).
Entries after “also recorded” stand apart in the source; their conditions may differ.

What was measured:
NACα protein = NACα protein (Homo sapiens, UniProt Q13765); test: Localized surface plasmon resonance (SPR) binding to NACα protein; conditions: DEPC-treated water, 25° C.; for Kd: ratio Koff/Kon
From the text: The affinity of DICAR-JP45 and DICAR-JP for binding to NACα protein was compared using localized surface plasmon resonance (SPR) technology (Wuhan Yangene Biological Technology Co., Ltd.).
Among them, the dissociation coefficient Koff is used to characterize the constant of the dissociation velocity of DICAR-JP45 and NACα protein, the binding coefficient Kon is used to characterize the constant of the binding velocity of DICAR-JP45 and NACα protein, and the affinity constant KD is the ratio of Koff/Kon, indicating the equilibrium dissociation constant between DICAR-JP45 and NACα protein.

[1] = system: AC16 cardiomyocytes treated with AGEs; test: Pharmacodynamics: CCK8 EC50 against AGEs-induced cardiomyocyte injury; type: cell-based, human; conditions: for protective effect over concentration gradient (relative survival of cardiomyocytes): 1, 10, 20, 30, 40, 50 nM + AGEs 200 μg/mL, 24 h; for EC50: 1-50 nM, 24 h + AGEs 200 μg/mL, CCK8, fitting curve, read-out: half-maximal effect concentration (EC50)
Description: The cell viability was detected by CCK8 assay after 24 h of cell treatment. The absorbance was measured at 450 nm using a microplate reader to calculate the half-maximal effect concentration (EC50), respectively. EC50 was calculated according to the following formula:
[formula] where the blank refers to the serum-free DMEM.

db/db mice = test: Cardiac function of db/db mice after AAV9-DICAR-JP / AAV9-DICAR-JP45 tail vein injection; type: in vivo, mouse; conditions: for E′/a value: db/db mice 1.14, DICAR-JP p<0.05, DICAR-JP45 no statistical significance
From the text: In the present disclosure, Shanghai Jikai Gene Medical Technology Co., Ltd. was commissioned to construct AAV9-DICAR-JP and AAV9-DICAR-JP45 viruses based on the sequences shown in SEQ ID NOS: 12 and 10, including CMV bGlobin EGFP-MCS-WPRE hGH polyA as a viral plasmid construction skeleton element sequence, a vector with the number GV412, and NheI and Hind III as cloning sites; the construction of microRNA up involves extending the precursor sequence of microRNA approximately 100 bp each upstream and downstream of the genome, ensuring the splicing efficiency of microRNA.
The mice were divided into db/m+AAV9-GFP (mock control, 5×10^11 vg), db/db+AAV9-GFP (5×10^11 vg), db/db+AAV9-DICAR-JP (5×10^11 vg), db/db+AAV9-DICAR-JP45 (5×10^11 vg), and db/db+dapagliflozin (DAPA, 1.5 mg/kg/d) groups. AAV9 viruses were injected into the tail vein of the mice at the age of 4 months. The mice in the db/db group were administered by gastric gavage with DAPA at the age of 5 months, and the mice in the db/m group were controls without gastric gavage of DAPA. The changes of cardiac function were evaluated by small animal echocardiography at the age of 5, 6 and 7 months, respectively, cardiac remodeling was evaluated by Masson staining, and myocardial hypertrophy was evaluated by wheat germ agglutinin (WGA) staining.

GSDMD = test: Western blot of pyroptosis-related protein GSDMD in AGEs-treated AC16 cells; type: cell-based, human; conditions: 40 nM, 24 h + AGEs 200 μg/mL, β-actin reference
Description: (§1) The DICAR-JP45 (40 nM) and DICAR-JP sequences were transfected into AC16 cell model for 24 h, respectively. The serum-free medium was replaced for starvation for 2 h, followed by treatment with AGEs (200 μg/mL) for 24 h, respectively. After the cells were treated, the expressions of pyroptosis-related proteins, GSDMD and apoptosis associated speck-like protein containing a CARD (ASC), were detected by Western blot (WB). The internal reference protein was β-actin. The WB was conducted according to the following steps.
(§2) The cells were rinsed twice with PBS, protein lysate (100 μL/well) was added, and the cells were lysed on ice for 30 min. The lysate was collected and centrifuged at 12000 rpm for 30 min at 4° C. After centrifugation, the supernatant protein was collected. The protein sample was mixed with the protein loading buffer at a 4:1 ratio and heated in a metal bath at 95° C. for 10 min, and the sample was stored at 4° C. […] Signals were detected by using enhanced chemiluminescent reagent, and the Western blot bands were quantitatively analyzed by Image J software. […]

ASC = test: Western blot of pyroptosis-related protein ASC in AGEs-treated AC16 cells; type: cell-based, human; conditions: 40 nM, 24 h + AGEs 200 μg/mL, β-actin reference
Description: as §1, §2

[2] = system: AC16 human cardiomyocytes treated with AGEs; test: CCK8 cell viability screening of candidate sequences in AGEs-treated cardiomyocytes; type: cell-based; conditions: for protective effect on cardiomyocytes compared with DICAR-JP / relative cell viability / protective effect at around 48 h: 20 nM, CCK8; for protective effect on cardiomyocytes compared with DICAR-JP: 24 h transfection; for protective effect on cardiomyocytes compared with DICAR-JP / relative cell viability: AGEs 200 μg/mL for 24 h; for protective effect at around 48 h: AGEs 200 μg/mL for 48 h
Description: In this example, CCK8 assay was used to evaluate the protective activity of the candidate sequences against cardiomyocytes treated with advanced glycation end products (AGEs, purchased from Bioss®, Cat #bs-1158P), so as to select a small RNA with a better protective effect on cardiomyocytes. The method included the following steps:
Cell culture: AC16 human cardiomyocytes (purchased from Guangzhou Jennio Biotech Co., Ltd., derived from ATCC) were cultured in DMEM (High Glucose) Complete Medium (supplemented with 10% fetal bovine serum (FBS) and 1% […]) in a 5% CO2, 37° C. incubator.
Grouping: Control, AGEs (200 μg/mL, 24 h/48 h), negative control (NC, 20 nM, 24 h), DICAR-JP4 (20 nM, 24 h), DICAR-JP6 (20 nM, 24 h), DICAR-JP18 (20 nM, 24 h), DICAR-JP23 (20 nM, 24 h), DICAR-JP27 (20 nM, 24 h), DICAR-JP28 (20 nM, 24 h), DICAR-JP29 (20 nM, 24 h), DICAR-JP32 (20 nM, 24 h), DICAR-JP40 (20 nM, 24 h), DICAR-JP45 (20 nM, 24 h), and DICAR-JP (20 nM, 24 h).
Nucleic acid transfection method: Two microliters (μL) each of Lipofectamine® RNAi MAX (Thermo Fisher Scientific RNi MAX, Cat #13778-500) and DICAR-JPN were diluted with Opti-MEM® Medium (50 μL), respectively, and then the two reagents were mixed well and incubated at room temperature for 5 min. The Lipofectamine® RNAi MAX-DICAR-JPN complex was added to the AC16 cell supernatant (50 μL/well, 24 h) on a 24-well plate. Afterward, the complete medium was replaced with serum-free DMEM, and the cell cycle was synchronized for 2 h. AC16 cells were treated with 200 μg/mL AGEs for 24 and 48 h, respectively, and their viability was evaluated by CCK8 assay.
Evaluation of cell viability by CCK8 assay: The cells were washed twice with phosphate-buffered saline (PBS) in the dark, and serum-free DMEM supplemented with CCK8 (CCK8: DMEM=1:9) was added; the well plate was placed back into the cell culture incubator for further incubation for 1 h, and the absorbance was measured at 450 nm using a microplate reader. The cell viability (%) was calculated according to the following formula: Cell viability=[(A450nmExperiment−A450nmBlank)]/[(A450nmControl−A450nmBlank)]×100%, where the blank refers to the serum-free DMEM.

[3] = AAV9 tail vein, echocardiography

Sequence | Koff (NACα protein) [s⁻¹] | Kon (NACα protein) [M⁻¹ s⁻¹] | Kd (NACα protein) [nM] | protective effect over concentration gradient (relative survival of cardiomyocytes) [1] | EC50 [1] [nM] | E′/a value (db/db mice; AAV9 5×10^11 vg tail vein) | cardiomyocyte hypertrophy (WGA staining) (db/db mice; AAV9 tail vein) | suppression of expression of GSDMD (GSDMD) | improvement in mouse cardiac function (db/db mice; 3 months after tail vein injection at age 4 months) | ejection fraction (EF) value (db/db mice; AAV9 5×10^11 vg tail vein, 3 months after injection, db/db mice 57.5%) [%] | FS value (db/db mice; [3]) | LVVs value (db/db mice; [3]) | suppression of expression of ASC (ASC) | efficacy duration [2] | protective effect on cardiomyocytes compared with DICAR-JP [2] | relative cell viability [2] | protective effect at around 48 h [2]
CAACCUCCGGGGCCACAAUAGCGAGAUUUGUAAGACUCCAGGGCCUCCCAG (chemistry not given here) [DICAR-JP, reference compound] | 0.000866 | 22600 | 38.3 | increase within the concentration gradient range | 26.2 | 1.73 | effectively inhibit cardiomyocyte hypertrophy | – | – | – | – | – | – | – | – | – | –
CAACCUCCGGGGCCACAAUAGCGAGAUUUGUAAGACUCUAGGGCCUCCCAG (chemistry not given here) [DICAR-JP45] | 0.000152 | 25000 | 6.09 | increase within the concentration gradient range | 17.9 | 1.45 | no significant effect on improving myocardial hypertrophy | more significantly compared with DICAR-JP | a certain effect on improving cardiac function | 71.07 | improve | improve | more significantly compared with DICAR-JP | over 24 h | significant protective effect | higher cardiomyocyte viability; also recorded: close to that of the untreated group | disappeared
CAACCUCCGGGGCCACAAUAGCGAGAUUUGUAAGAUUCCAGGGCCUCCCAG (listed as RNA, chemistry not given here) [DICAR-JP40] | – | – | – | – | – | – | – | – | – | – | – | – | – | – | significant protective effect | significantly higher than that of the model group | disappeared
